In assay [1] the test system is U2OS + SSTR2A cells. Nature of the assay: X-ray radiotherapy viability post chemotherapeutics. Format: cell-based, human. To be noted: 24 h 2 mM HU, 4 ng/mL GEM, 200 ng/mL TRI, X-ray 0, 2 and 4 Gy, N = 3 (Figure S7). The protocol: (§1) Cells where then treated with chemotherapeutics for 24 hours at 2 mM HU, 4 ng/mL GEM and 200 ng/mL TRI. Following chemotherapeutics, media was refreshed, and cells were X-ray irradiated at 0 (sham-irradiated), 2 and 4 Gy using the image-guided small animal radiotherapy system, SmART+, X-ray irradiator (Precision X-ray Irradiation). The calibrated dose-rate was 6.1796 Gy.min^-1; the X-ray beam used for treatment was set at a voltage of 225 kV, a current of 20 mA and passed through a 0.3 mm Cu filter. Viability analyses were then carried out as above.

Assay [2] deals with U2OS cells. The description is as above. To be noted: 24 h 2 mM HU, 4 ng/mL GEM, 200 ng/mL TRI, X-ray 0, 2 and 4 Gy, N = 3 (Figure S7). Format: cell-based, human. How it is done:
as §1

Assay [3] has as its system U2OS + SSTR2A cells. Nature of the assay: Viability after chemotherapeutic agents (GI50, MTT). Format: cell-based. The conditions noted are these: Homo sapiens, 24 h treatment, further 5 days growth, from fitted curves, N = 3. The protocol: (§2) U2OS/U2OS + SSTR2A and BON1/BON1 + SSTR2A cells were seeded in 96-well plates at 2 × 10^3 and 4 × 10^3 cells/well, respectively, and allowed to adhere overnight in the incubator. Cells were then treated with a range of hydroxyurea, gemcitabine, and triapine concentrations for 24 h. Hydroxyurea in U2OS/U2OS + SSTR2A cells was used at 152 µg/mL for 24 h. Chemotherapeutics were then removed, and cells washed with PBS prior to returning to the incubator in fresh medium. Cells were then grown for a further 5 days post-chemotherapeutics prior to assessing metabolic viability, as described above. Chemotherapeutic concentrations needed to inhibit population growth by 50% (GI50) were then calculated.

For assay [4], the system named is BON1 + SSTR2A cells. The assay is described as above. It is filed as cell-based, human. To be noted: 24 h treatment, further 5 days growth, from fitted curves. The protocol: as §2
Assay [5] has as its system BON1 cells. It is filed as cell-based, human. To be noted: parental BON1 cells; label = chemotherapeutic pre-treatment; MTT at day 7, N = 3. The protocol:
(§3) Excess MTT was then removed. Formazan crystals were dissolved with 50 μL/well in dimethylsulfoxide (DMSO) for 2 min at room temperature (RT) under gentle agitation. Well absorbance at 570 nm was then measured on a UV/V is absorbance microplate reader (SPECTROstar® Nano, BMG LABTECH). Metabolic viability, following signal-to-background correction, was calculated as the percentage signal in treated cells normalised to the signal in untreated cells.

Assay [6] has as its system U2OS cells. Format: cell-based, human. The conditions noted are these: parental U2OS cells; label = chemotherapeutic pre-treatment; MTT at day 7, N = 3. How it is done:
as §3

The subject of assay [7] is BON1 + SSTR2A cells. The assay is described as follows: [^177Lu]Lu-DOTA-TATE uptake. It is filed as cell-based, human. The conditions noted are these: 24-hour incubation, 25 nM DOTA-TATE, 0.74–1.03 MBq, mean ± SD, N = 3–4.
Experimental: (§5) 1.5 × 10^5 U2OS/U2OS + SSTR2A or 2 × 10^5 BON1/BON1 + SSTR2A cells were seeded into 6-well plates in medium and allowed to adhere overnight in the incubator. The following day, 0.70–0.93 MBq (U2OS/U2OS + SSTR2A) or 0.75–1.03 MBq (BON1/BON1 + SSTR2A) [^177Lu]Lu-DOTA-TATE was added to wells (25 nM total DOTA-TATE) and incubated for 24 h. Excess [^177Lu]Lu-DOTA-TATE was then removed from wells and pooled together with two PBS washes (“Unbound” fraction). Cell-associated activity was harvested from wells by lysing cells with 0.5 M NaOH solution and pooled with a subsequent PBS wash (“Bound” fraction). Data was presented as percentage added activity (%AA) and activity per cell (Bq/cell).
1.5 × 10^5 U2OS/U2OS + SSTR2A or 2 × 10^5 BON1/BON1 + SSTR2A cells were seeded into 6-well plates in DMEM-HG or DMEM/F-12 medium, respectively, and allowed to adhere overnight in the incubator. Cells where then treated with chemotherapeutics for 24 h at the following concentrations: 152 µg/mL hydroxyurea, 4 ng/mL gemcitabine, and 200 ng/mL triapine for U2OS/U2OS + SSTR2A cells; and 152 µg/mL hydroxyurea, 2 ng/mL gemcitabine, and 100 ng/mL triapine for BON1/BON1 + SSTR2A cells. Following a 4 h recovery period after chemotherapeutics, medium was replaced with 1 mL of medium containing [^177Lu]Lu-DOTA-TATE for 24 h at 0.7–0.93 MBq for U2OS/U2OS + SSTR2A cells or 0.75–1.03 MBq for BON1/BON1 + SSTR2A cells. […]
For assay [8], the system named is U2OS + SSTR2A cells. Nature of the assay: Subcellular localisation of [^177Lu]Lu-DOTA-TATE. To be noted: no chemotherapeutic (Untreated), 24 h, 25 nM, mean ± SD, N = 3.
Experimental: (§6) Subcellular localisation of [^177Lu]Lu-DOTA-TATE in cells followed the protocol for the uptake assays above, except that, following removal of excess [^177Lu]Lu-DOTA-TATE, cells were incubated with ice-cold 0.1 M glycine (pH 2.5) for 10 min prior to pooling with a further PBS wash (“Membrane” fraction). Cells were then detached with Accutase and diluted in medium prior to pelleting and transferring the supernatant to the “Cytoplasm” fraction. The cell pellet was resuspended in ice-cold cell lysis buffer (25 mM KCl, 5 mM MgCl2, 10 mM Tris-HCl, and 0.5% v/v IGEPAL CA-630) and incubated for 15 min. Intact nuclei were pelleted and separated from lysed cells by centrifugation (10,000 g, 3 min) and the supernatant removed and combined with the previous portion of the “Cytoplasm” fraction. Pelleted nuclei were resuspended in phosphate-buffered saline (PBS) and transferred to tubes to gamma counting (“Nuclear” fraction). The percentage distribution of [^177Lu]Lu-DOTA-TATE in cells was then calculated for the membrane, cytoplasm, and nucleus.
The subject of assay [9] is U2OS cells. The assay is described as follows: [^177Lu]Lu-DOTA-TATE uptake. It is filed as cell-based, human. To be noted: U2OS parental cells, 24-hour incubation, 25 nM DOTA-TATE, 0.74–1.03 MBq, mean ± SD, N = 3–4.
Experimental: as §5
Assay [10] deals with BON1 + SSTR2A cells. Nature of the assay: Subcellular localisation of [^177Lu]Lu-DOTA-TATE. The conditions noted are these: no chemotherapeutic (Untreated), 24 h, 25 nM, mean ± SD, N = 3.
Experimental: as §6
Assay [11] relates to U2OS + SSTR2A cells. Nature of the assay: [^177Lu]Lu-DOTA-TATE uptake (with or without chemotherapeutic pre-treatment). The conditions noted are these: 25 nM DOTA-TATE, mean ± SD.
Experimental: as §5
1.5 × 10^5 U2OS/U2OS + SSTR2A or 2 × 10^5 BON1/BON1 + SSTR2A cells were seeded into 6-well plates in DMEM-HG or DMEM/F-12 medium, respectively, and allowed to adhere overnight in the incubator. Cells where then treated with chemotherapeutics for 24 h at the following concentrations: 152 µg/mL hydroxyurea, 4 ng/mL gemcitabine, and 200 ng/mL triapine for U2OS/U2OS + SSTR2A cells; and 152 µg/mL hydroxyurea, 2 ng/mL gemcitabine, and 100 ng/mL triapine for BON1/BON1 + SSTR2A cells. Following a 4 h recovery period after chemotherapeutics, medium was replaced with 1 mL of medium containing [^177Lu]Lu-DOTA-TATE for 24 h at 0.7–0.93 MBq for U2OS/U2OS + SSTR2A cells or 0.75–1.03 MBq for BON1/BON1 + SSTR2A cells. […] Uptake and viability studies were then carried out as above.
Assay [12] concerns BON1 cells. The assay is described as follows: [^177Lu]Lu-DOTA-TATE uptake. Format: cell-based, human. The conditions noted are these: BON1 parental cells, 24-hour incubation, 25 nM DOTA-TATE, 0.74–1.03 MBq, mean ± SD, N = 3–4.
Experimental: as §5
Assay [13] has as its system U2OS + SSTR2A cells. Nature of the assay: [^177Lu]LuCl3 and DOTA-TATE viability (MTT). To be noted: MTT after 7 days. Format: cell-based, human. The protocol: 2x10^3 U2OS or U2OS+SSTR2A cells, after treatment for 24 hours with [^177Lu]LuCl3 (0.97 MBq) or DOTA-TATE (25 nM, U2OS+SSTR2A only), were reseeded in technical sextuplet wells in 96-well plates containing a final media volume of 180 µL/well. Dedicated wells with no cells present served as background signal controls. Plates were placed in the incubator and cells allowed to adhere and grow for 7 days. After 7 days, DMEM-HG was aspirated and replaced with 90 µL of basal DMEM-HG containing 0.5 mg/mL MTT. Plates were returned to the incubator for 4 h prior to aspiration of excess MTT. Formazan crystals were then dissolved with 50 µL/well DMSO for 2 minutes at RT under gentle agitation. Well absorbance at 570 nm wavelength was then immediately measured on a UV/Vis absorbance microplate reader (SPECTROstar® Nano, BMG LABTECH). Metabolic viability, following signal background-correction, was calculated as the percentage of signal normalized to the signal of the respective fully-untreated or chemotherapeutic-alone cells.

The subject of assay [14] is U2OS + SSTR2A cells. Nature of the assay: [^177Lu]LuCl3 uptake. It is filed as cell-based, human. The conditions noted are these: 0.97 MBq, 24-hour incubation, N = 3 (Figure S3). The protocol:
(§4) The following day, 0.97 MBq [^177Lu]LuCl3 was added to wells and incubated for 24 hours. […] Data is presented as both percentage uptake of total added activity and normalised as Bq/cell uptake.

For assay [15], the system named is U2OS cells. Nature of the assay: [^177Lu]LuCl3 uptake. Format: cell-based, human. To be noted: 0.97 MBq, 24-hour incubation, N = 3 (Figure S3). The protocol: as §4
Where [16] appears, read: Homo sapiens, N = 3, read-out: GI50.

≈ marks a conversion by molar mass, not a printed value. Where two headings read alike, the source gives them in different places.

As to `Nc1ccn([C@@H]2O[C@H](CO)[C@@H](O)C2(F)F)c(=O)n1` [Gemcitabine, gemcitabine], the “potentiation of X-ray radiation effects by chemotherapeutic pre-treatment (viability)” value (shortened to “potentiation of X-ray radiation effects”) with U2OS + SSTR2A cells [1] and in the assay with U2OS cells [2] was “potentiation of radiation effects was seen” in each case. The GI50 came out at 0.0047 µg/mL (≈ 0.0179 µM) in the assay with U2OS + SSTR2A cells [3] and 0.0022 µg/mL (≈ 0.00836 µM) with BON1 + SSTR2A cells [4] (setting [16]). Besides, the “Effect on viability of combining chemotherapeutic with [^177Lu]Lu-DOTA-TATE” value (“Effect on viability” for short) in the assay on BON1 cells [5] and with U2OS cells [6] was “did not affect viability” each time.
For `NC(=O)NO` [Hydroxyurea, hydroxyurea], the “potentiation of X-ray radiation effects” value in the assay on U2OS + SSTR2A cells [1] and in the assay with U2OS cells [2] was “potentiation of radiation effects was seen” each time. Moreover, the GI50 in the assay on BON1 + SSTR2A cells [4] (N = 3) is 248.1 (152) µg/mL. Further, the “Effect on viability” value in the assay on BON1 cells [5] and in the assay with U2OS cells [6] was “did not affect viability” in each case.
Take `NC(=S)N/N=C/c1ncccc1N` [Triapine, triapine]: the “potentiation of X-ray radiation effects” value in the assay with U2OS + SSTR2A cells [1] and in the assay on U2OS cells [2] was “potentiation of radiation effects was seen” each time. The figures for the GI50 with U2OS + SSTR2A cells [3] and with BON1 + SSTR2A cells [4] (setting [16]) were 0.12 µg/mL (≈ 0.617 µM) and 0.327 µg/mL (≈ 1.67 µM), respectively. Further, the “Effect on viability” value with BON1 cells [5] and with U2OS cells [6] was “did not affect viability” in each case.
In the case of `C[C@@H](O)[C@H](NC(=O)[C@@H]1CSSC[C@H](NC(=O)[C@@H](Cc2ccccc2)NC(=O)CN2CCN(CC(=O)O)CCN(CC(=O)O)CCN(CC(=O)O)CC2)C(=O)N[C@@H](Cc2ccc(O)cc2)C(=O)N[C@H](Cc2c[nH]c3ccccc23)C(=O)N[C@@H](CCCCN)C(=O)N[C@@H]([C@@H](C)O)C(=O)N1)C(=O)O` [[^177Lu]Lu-DOTA-TATE, [^177Lu]Lu-[DOTA^0-Tyr^3]octreotate, metal not drawn], the “Uptake (mBq/cell)” value in the assay with BON1 + SSTR2A cells [7] was 111.2 ± 16.5 mBq/cell; in the assay with U2OS cells [9], 4.4 ± 1.0 mBq/cell; in the assay on U2OS + SSTR2A cells [11] (U2OS + SSTR2A cells, 24-hour incubation, 0.74–1.03 MBq, N = 3–4), 216.9 ± 47.4 mBq/cell; with BON1 cells [12], 6.5 ± 6.3 mBq/cell. In addition, the “Uptake (%AA)” value in the assay on BON1 + SSTR2A cells [7] (percentage added activity) is reported as 9.6 ± 0.6 %AA; in the assay on U2OS cells [9] (percentage added activity), 0.3 ± 0.0 %AA; in the assay on U2OS + SSTR2A cells [11] (U2OS + SSTR2A cells, 24-hour incubation, 0.74–1.03 MBq, percentage added activity, N = 3–4), 17.8 ± 2.4 %AA; with BON1 cells [12] (percentage added activity), 0.5 ± 0.3 %AA. Also, the “Cytoplasm (%) of total uptake of [^177Lu]Lu-DOTA-TATE” value is 93.5 ± 0.9% in the assay with U2OS + SSTR2A cells [8] and 90.2 ± 1.7% in the assay on BON1 + SSTR2A cells [10]. Moreover, the results for the “Membrane (%) of total uptake of [^177Lu]Lu-DOTA-TATE” value in the assay with U2OS + SSTR2A cells [8] and in the assay on BON1 + SSTR2A cells [10] were 4.1 ± 0.6% and 7.3 ± 1.0%, respectively. The “Nucleus (%) of total uptake of [^177Lu]Lu-DOTA-TATE” value with U2OS + SSTR2A cells [8] amounted to 2.3 ± 0.4%; in the assay with BON1 + SSTR2A cells [10], 2.5 ± 0.7%. The “Internalized quantities of [^177Lu]Lu-DOTA-TATE” value in the assay on U2OS + SSTR2A cells [11] (untreated (no chemotherapeutic) U2OS + SSTR2A cells, 24 h, 0.7–1.03 MBq) is recorded as 0.2 ± 0.05 Bq/cell.
With `[177Lu+3].[Cl-].[Cl-].[Cl-]` [[^177Lu]LuCl3], the “metabolic viability after [^177Lu]LuCl3” value with U2OS + SSTR2A cells [13] (SSTR2A-expressing cells, 0.97 MBq for 24 hours, N = 3 (Figure S4)) is given as “only minor reductions in metabolic viability”. For the same molecule, the “Uptake of unchelated [^177Lu]LuCl3” value in the assay with U2OS + SSTR2A cells [14] and in the assay with U2OS cells [15] was “low” each time.
On to DOTA-TATE, for which the “metabolic viability after non-radioactive DOTA-TATE” value in the assay with U2OS + SSTR2A cells [13] (U2OS + SSTR2A cells, 25 nM for 24 h, N = 4 (Figure S5)) was “did not reduce metabolic viability”.
